pIC50: −log10 of the molar value. Like-named read-outs stand apart in the source and are kept apart here. A value given as a limit tells only on which side of the number the result lay.

One test concerns Akt phosphorylation. Briefly: Akt Phosphorylation Assay (western blot), Panc-1. In kind it is cell-based, human. Particulars: at 10 μM, * = activation. Summed up: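 Phospho-Akt (Ser473) was measured by western blot in lysates of KRas G12D Panc-1 cells exposed to test compound for 6 h at 37 °C, either at 10 μM final with 0.3% DMSO or as serial dilutions for IC50. One format used overnight 0.5% FBS starvation followed by a 15 min pulse of 1.5 ng/ml EGF. The other used cells in 10% FBS with no stimulation.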
On the technique in general: A western blot detects proteins with antibodies after separation by electrophoresis.

The test system of the next test is IL6. As to the kind of experiment: IL-6 Quantification Assay (ELISA), LPS-stimulated RAW 264.7. Particulars: Mus musculus, RAW264.7; read-out: IL-6: % inh. The arrangement: inhibition: dose or concentration left out as unconfirmed. The format is cell-based. In general terms: An ELISA detects its analyte on a solid surface through an enzyme-linked reagent.
A further test has as its system TNF-alpha. Briefly: TNF-alpha Quantification Assay (ELISA), LPS-stimulated RAW 264.7. In kind it is cell-based. Particulars: Mus musculus, RAW264.7; at 10 μM; read-out: TNFα: % inh.
Test [1] deals with MiaPaca-2 (expressing KRAS G12C mutant). Briefly: Proliferation Assay (Cell Viability Assay). In kind it is cell-based. Particulars: Homo sapiens, MIA PaCa-2; for pIC50: read-out: Proliferation in MiaPaca-2: IC50. Summed up: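 After 2–4 days' exposure at 37 °C, 5% CO2 to a single 10 μM final concentration or a dilution series (IC50), percent proliferation inhibition was derived from CellTiter 96 Aqueous One viability readings. The medium contained 0.3% DMSO and 10% FBS. KRAS G12C MiaPaca-2 cells were plated at 2000–5000/well the day before.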

As to `Cc1c(-c2ccn(C)n2)cn2nc(-c3nccn3C)nc(Nc3cc(OC(F)(F)F)ccn3)c12` [Compound 127, 5-Methyl-2-(1-methyl-1H-imidazol-2-yl)-6-(1-methyl-1H-pyrazol-3-yl)-N-(4-(trifluoromethoxy)pyridin-2-yl)pyrrolo[2,1-f][1,2,4]triazin-4-amine], the “% inh of Akt phosphorylation in Panc-1” value in the test with Akt phosphorylation is “D* (85-100% activation)”. Also, the inhibition in the test on IL6 fell in the range of 50 to 74%. Further, the inhibition at 10 µM with TNF-alpha came to 0%. For the same compound, the pIC50 in test [1] is greater than 6.82.

In the case of `Cc1c(-c2ccn(C)n2)cn2nc(-c3nccn3C)nc(Nc3cc(C4CC4)[nH]n3)c12` [Compound 104, N-(5-Cyclopropyl-1H-pyrazol-3-yl)-5-methyl-2-(1-methyl-1H-imidazol-2-yl)-6-(1-methyl-1H-pyrazol-3-yl)pyrrolo[2,1-f][1,2,4]triazin-4-amine], the “% inh of Akt phosphorylation in Panc-1” value in the test with Akt phosphorylation was “D* (85-100% activation)”. In addition, the inhibition in the test with IL6 was in the range of 75 to 100%. Besides, the inhibition at 10 µM in the test with TNF-alpha is 0%. Also, in test [1] (Proliferation assay, MiaPaca-2, read-out: MiaPaca-2 IC50 (nM) Pancreatic), the IC50 lay within 1 to 10 nM. Besides, the pIC50 in test [1] was greater than 6.82.

What is called IC50 is the concentration that gives 50% inhibition.
